On the set-up of data set [1]: method as in Narasimhan et al., 2013. The conditions noted are these: ref Narasimhan et al., 2013, cited from earlier work.
For data set [2] the following is noted: concurrent therapy with ketoconazole (a CYP3A4 inhibitor), ref Narasimhan et al., 2013; cited from earlier work.
For data set [3] the following is noted: human; cited from earlier work.
Data set [4] can be described thus: in vivo. The conditions noted are these: male, mouse, plasma, po, 40 mg/kg, ponatinib 40 mg/kg oral gavage; for Cmax: WT mice.
Data set [5] has as its system human recombinant P450 enzymes. In words: Ponatinib biotransformation by panel of 11 human recombinant P450 enzymes. It counts as in vitro ADME. Particulars: ponatinib 50 µM, P450 100 nM, panel of 11 enzymes. The method, then:
All incubations were performed at 37°C and 300 rpm in a thermomixer. Human cDNA-expressed P450 isoenzymes coexpressed with human NADPH P450 oxidoreductase (see Supplemental Fig. 1 for CYP:oxidoreductase ratio data) were carefully thawed on ice prior to the experiment. […] After 5-minute preincubation at 37°C, the incubation reactions were initiated by addition of a NADPH regenerating system (final concentration: 1.3 mM NADPH, 4 mM glucose-6-phosphate, and 2 unit/ml glucose-6-phosphate dehydrogenase). After 5–120 minutes, an aliquot of 100 µl of reaction mixture was quenched with same volume of cold acetonitrile containing 400 ng/ml of triazolam as the internal standard. […] An aliquot of the supernatant fraction was analyzed by liquid chromatography (LC)–tandem mass spectrometry (MS), i.e., LC-MS/MS. […]
In the present study, the absolute concentrations of the metabolites in the incubation mixture could not be determined because of the lack of authentic standards. […] The relative activity of the P450s toward metabolite formation could be calculated according to the ratio of the metabolite concentration to that in the sample with highest mass response. The PK parameters of in vivo data were calculated with a simple noncompartmental model using the WinNonLin software, version 4.1 (Pharsight (Certara, Cambridge, UK)) and are shown with the S.D. values. […]

The nature of data set [6]: in vivo. The conditions noted are these: for Cmax / half-life: male, hCYP1A1/1A2 humanized, mouse, in vivo, po, 40 mg/kg, ponatinib 40 mg/kg oral gavage; for Cmax: hCYP1A1/1A2 mice; for half-life: t1/2, hCYP1A1/1A2 mice. The method, then:
All animal work was carried out on 8- to 12-week-old male mice. 3-Methylcholanthrene (3-MC) was suspended in corn oil at 4 mg/ml for administration by intraperitoneal injection at 40 mg/kg (10 μl/g body weight) daily for 3 days for hCYP1A1/2 mice. TCDD was suspended in corn oil at 1 µg/ml for administration by intraperitoneal injection at 10 µg/kg (10 μl/g body weight) daily for 3 days for wild-type (WT) mice. […] For blood sample collection, 10 μl of whole blood was withdrawn from the tail vein at the indicated time points. Samples were immediately added to a tube containing heparin solution (10 μl, 15 IU/ml), put into liquid nitrogen, and then stored at −80°C until processing. On the day of analysis, acetonitrile (80 µl containing 200 ng/ml triazolam) was added to thawed samples, which were shaken for 15 minutes, centrifuged for 10 minutes at 16,000g, and analyzed. […] An aliquot of 0.25 g was extracted with 1 ml of 80% methanol for 30 minutes on a vortex evaporator (Labconco, Kansas City, MO). After centrifugation (30 minutes at 4000g), the solvent of a 800 μl aliquot of the supernatant was removed by speed vacuum, followed by reconstitution in 500 μl methanol and water (50/50, v/v), and analyzed by LC-MRM.
Analysis of in vitro incubation and in vivo blood PK samples was carried out by ultra-performance LC-MS/MS using the Waters Acquity UPLC (Micromass, Manchester, United Kingdom) and Micromass Quattro Premier Mass Spectrometer with electrospray ionization. The chromatography was performed using a C18 column (Kinetex 1.7 µ 100 A; 50 × 2.1 mm; Phenomenex, Macclesfield, United Kingdom) at a temperature of 45°C with mobile phases of 0.1% formic acid (A) and acetonitrile and 0.1% formic acid (B). A gradient at a flow rate of 0.5 ml/min was run over 3 minutes as follows: 0–0.5 minutes, 95% A; 0.5–0.75 minutes, 95%–67.5% A; 0.75–1.50 minutes, 67.5% A, 1.50–2.00 minutes, 67.5%–50% A; 2.00–2.50 minutes, 50%–5% A; and then returning to the initial conditions for a final 0.5 minutes. The cone voltage and collision energy were optimized for each substrate and MRM data were acquired (Supplemental Table 1).
In the present study, the absolute concentrations of the metabolites in the incubation mixture could not be determined because of the lack of authentic standards. Therefore, the relative activity of the P450s was presented by comparing the concentration of the metabolite in a sample with the concentration of the same metabolite in the sample that had the highest response under the same experimental condition ([Yu et al., 2010]). The relative activity of the P450s toward metabolite formation could be calculated according to the ratio of the metabolite concentration to that in the sample with highest mass response. The PK parameters of in vivo data were calculated with a simple noncompartmental model using the WinNonLin software, version 4.1 (Pharsight (Certara, Cambridge, UK)) and are shown with the S.D. values. The P values were calculated using an unpaired t test; *P < 0.05, **P < 0.01, ***P < 0.001.

The conditions of data set [7]: cited from earlier work.
A further data set deals with T1, mGstp1 (Mus musculus, UniProt P19157).
T1 construct: made in house
T1 sequence (P19157 2-210 limits assumed): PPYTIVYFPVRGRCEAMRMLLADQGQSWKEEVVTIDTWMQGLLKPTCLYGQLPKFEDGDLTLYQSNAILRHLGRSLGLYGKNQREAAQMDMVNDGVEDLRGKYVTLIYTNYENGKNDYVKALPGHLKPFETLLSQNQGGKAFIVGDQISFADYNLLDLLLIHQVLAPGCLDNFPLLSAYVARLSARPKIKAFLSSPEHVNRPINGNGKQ
In words: Protein adducts of ponatinib with mGstp1 in the presence of human recombinant CYP1A1 (LC-MS/MS of tryptic digests). It counts as in vitro ADME. The conditions noted are these: ponatinib 50 µM, CYP1A1, 10 µg/ml mGstp1, 80 minutes. The method, then:
The incubation was started by the addition of a NADPH-regenerating system (final concentration: 1.3 mM NADPH, 4 mM glucose-6-phosophate, 2 U/ml glucose-6-phosphate dehydrogenase, and 3.3 mM […]) and allowed to proceed at 37°C for 80 minutes. The reaction was terminated by cooling on ice, and the E. coli membrane containing human recombinant CYP1A1 was removed by ultracentrifugation at 41,000g at 4°C for 80 minutes. […] The solvent was exchanged to 50 mM ammonium bicarbonate and further concentrated to 100 µl.
Aliquots of the solution (10 µl) were mixed with 10 μl of 4× NuPAGE lithium dodecyl sulfate loading buffer (Invitrogen, Carsbad, CA) by incubation at 95°C for 5 minutes and then subjected to SDS-PAGE on a NuPAGE Novex 10% Bis-Tris mini gel (Invitrogen NP0341BOX). After electrophoresis at a constant 180 V for 30 minutes, gels were stained with Coomassie Blue. Bands (20–25 kDa) containing mGstp1 were cut from the gel, and after removing the Coomassie Blue from the gel by adding 100 mM ammonium bicarbonate/acetonitrile (1:1, v/v) and subsequently dehydrating with 100% acetonitrile, the solvent was removed from the gel pieces under vacuum. The residue was resuspended in 0.01 μg/μl MS grade trypsin (Promega, Madison, WI) in 25 mM ammonium bicarbonate and incubated at 37°C overnight. […]

For data set [8] the following is noted: WT mice treated with TCDD versus vehicle.
Where [9] appears, read: hCYP1A1/1A2 mice treated with 3-MC versus vehicle.
Where [10] appears, read: 3-MC pretreatment (40 mg/kg i.p. daily for 3 days).
The mark [11] stands for this setting: ponatinib treatment, ref Cortes et al., 2012.

Regarding `Cc1ccc(C(=O)O)cc1C#Cc1cnc2cccnn12` [AP24600], the activity of metabolite result in data set [1] (esterase/amidase product) was “inactive”.

In the case of `Cc1ccc(C(=O)Nc2ccc(CN3CCNCC3)c(C(F)(F)F)c2)cc1C#Cc1cnc2cccnn12` [N-desmethyl], the “potency relative to ponatinib (fold less potent)” value in [1] is recorded as 4 fold.

For the molecule `Cc1ccc(C(=O)Nc2ccc(CN3CCN(C)CC3)c(C(F)(F)F)c2)cc1C#Cc1cnc2cccnn12` [ponatinib, 3-[2-(imidazo[1,2-b]pyridazin-3-yl)ethynyl]-4-methyl-N-4-[(4-methylpiperazin-1-yl)methyl]-3-(trifluoromethyl)phenylbenzamide], in [2], the “change of ponatinib AUC0–∞, AUC0–t and Cmax values” is given as “significantly increased”. Moreover, the “plasma half-life (t1/2)” value in data set [3] was around 24 h. Besides, the Cmax in “in vivo [4]” (TCDD pretreatment (10 µg/kg i.p. daily for 3 days)) amounted to 253 ± 42 ng/mL. For the same molecule, the Cmax in the data set “in vivo [4]” (vehicle pretreatment) came out at 1210 ng/mL. Moreover, the half-life in the data set “in vivo [4]” (t1/2, WT mice, vehicle pretreatment) is 6.2 ± 0.2 h. Besides, the “P450 enzymes metabolizing ponatinib, disappearance of the parent drug” value in data set [5] was “principally metabolized via CYP3A4 and CYP1A1”. For the same molecule, in the data set “in vivo [6]” (setting [9]), the “reduction in AUC0–8 hours” value is reported as 54% and the reduction in half-life is 67%. In addition, in the data set “in vivo [6]” (setting [10]), the Cmax worked out at 620 ± 245 ng/mL and the half-life was 4.6 ± 0.8 h. In the data set “in vivo [6]” (vehicle pretreatment), the Cmax was determined as 705 ± 96 ng/mL and the half-life was 13.9 ± 1.7 h. Further, in data set [7] (clinical trials), the “alanine aminotransferase elevation, patients in clinical trials” value was 10.5% and the “aspartate aminotransferase elevation, patients in clinical trials” value is 8.2%. For the same molecule, in data set [7] (setting [11]), the “neutropenia, patients” value is 19% and the “thrombocytopenia, patients” value is 37%. The “covalent ponatinib adducts on mGstp1 cysteine residues” value at mGstp1 is “ponatinib-Gstp adducts had been formed on Cys-14 and Cys-47”. In addition, in [8], the “decrease in the ponatinib half-life” value was determined as 62% and the “reduction in the AUC0–8 hours value” was 87%.
